Assay results from patent US8802597B2, “Herbicidal pyrimidines” (E I du Pont de Nemours and Company, priority 2003, dated 2014).
Where two headings read alike, the source gives them in different places.

What was measured:
Assay type in all cases: in vivo
[1] = system: wild oat (Avena fatua); experiment: Test B postemergence; settings: Avena fatua, post-emergence
Procedure, shortened: (§1)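 Formulation: non-phytotoxic solvent blend with surfactant. Timing: preemergence on seeds, postemergence at 1- to 4-leaf (2–18 cm). Assessment: visual, 0–100 against controls, after 13–15 days' greenhouse growth.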

[2] = system: blackgrass (Alopecurus myosuroides); experiment: Test B postemergence; settings: Alopecurus myosuroides, post-emergence
Procedure, shortened: as §1

[3] = system: duck salad (Heteranthera limosa); experiment: Test B flooded paddy test; settings: Heteranthera limosa, Flood, 1000 g ai/ha; scale 0 to 100; read-out: Plant response rating, Ducksalad
Procedure, shortened: (§2)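 Rice, umbrella sedge, duck salad and barnyardgrass grown to 2-leaf stage under flooded paddy conditions and treated with formulated test chemicals. Kept in greenhouse 13–15 days, then visually rated against untreated controls on a 0–100 scale (0 no effect, 100 complete control).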

[4] = system: barnyardgrass (Echinochloa crus-galli); experiment: Test B flooded paddy test; settings: Echinochloa crus-galli, Flood, 1000 g ai/ha; scale 0 (no effect) to 100 (complete control); read-out: Plant response rating, Barnyardgrass
Procedure, shortened: as §2

[5] = system: umbrella sedge (Cyperus difformis); experiment: Test B flooded paddy test; settings: Cyperus difformis, Flood, 1000 g ai/ha; scale 0 to 100; read-out: Plant response rating, Sedge, Umbrella
Procedure, shortened: as §2

[6] = system: rice (Oryza sativa); experiment: Test B flooded paddy test; settings: Oryza sativa, Flood, 1000 g ai/ha; scale 0 to 100; read-out: Plant response rating, Rice
Procedure, shortened: as §2

[7] = system: corn (Zea mays); experiment: Test B pre/postemergence; settings: Zea mays
Procedure, shortened: as §1

[8] = system: crabgrass (Digitaria sanguinalis); experiment: Test B pre/postemergence; settings: Digitaria sanguinalis; for pest or weed control at 125 g/ha: 125 g ai/ha; for pest or weed control at 500 g/ha: 500 g ai/ha
Procedure, shortened: as §1

[9] = system: Surinam grass (Brachiaria decumbens); experiment: Test B pre/postemergence; settings: Urochloa decumbens; for pest or weed control at 125 g/ha: 125 g ai/ha; for pest or weed control at 500 g/ha: 500 g ai/ha
Procedure, shortened: as §1

[10] = system: wheat (Triticum aestivum); experiment: Test B pre/postemergence; settings: Triticum aestivum; for plant injury at 125 g/ha: 125 g ai/ha; for plant injury at 500 g/ha: 500 g ai/ha
Procedure, shortened: as §1

[11] = system: morningglory (Ipomoea coccinea); experiment: Test B pre/postemergence; settings: Ipomoea; for pest or weed control at 125 g/ha: 125 g ai/ha; for pest or weed control at 500 g/ha: 500 g ai/ha
Procedure, shortened: as §1

[12] = system: pigweed (Amaranthus retroflexus); experiment: Test B pre/postemergence; settings: Amaranthus retroflexus; for pest or weed control at 125 g/ha: 125 g ai/ha; for pest or weed control at 500 g/ha: 500 g ai/ha
Procedure, shortened: as §1

[13] = system: barnyardgrass (Echinochloa crus-galli); experiment: Test B pre/postemergence; settings: Echinochloa crus-galli; for pest or weed control at 125 g/ha: 125 g ai/ha; for pest or weed control at 500 g/ha: 500 g ai/ha
Procedure, shortened: as §1

[14] = system: cocklebur (Xanthium strumarium); experiment: Test B pre/postemergence; settings: Xanthium strumarium; for pest or weed control at 125 g/ha: 125 g ai/ha; for pest or weed control at 500 g/ha: 500 g ai/ha
Procedure, shortened: as §1

[15] = system: velvetleaf (Abutilon theophrasti); experiment: Test B pre/postemergence; settings: Abutilon theophrasti; for pest or weed control at 125 g/ha: 125 g ai/ha; for pest or weed control at 500 g/ha: 500 g ai/ha
Procedure, shortened: as §1

[16] = system: lambsquarters (Chenopodium album); experiment: Test B pre/postemergence; settings: Chenopodium album; for pest or weed control at 125 g/ha: 125 g ai/ha; for pest or weed control at 500 g/ha: 500 g ai/ha
Procedure, shortened: as §1

[17] = system: giant foxtail (Setaria faberii); experiment: Test B pre/postemergence; settings: Setaria faberi; for pest or weed control at 125 g/ha: 125 g ai/ha; for pest or weed control at 500 g/ha: 500 g ai/ha
Procedure, shortened: as §1

[18] = pre-emergence, Preemergence, scale 0 to 100 (0 no effect, 100 complete control), read-out: Plant response rating, Wheat

COC(=O)c1nc(C2CC2)nc(NO)c1Br [Compound 35]
60%: pest or weed control at 125 g/ha ([1]; 125 g ai/ha, scale 0 to 100 (0 no effect, 100 complete control), read-out: Oat, Wild plant response rating) | pest or weed control at 500 g/ha ([1]; 500 g ai/ha, scale 0 to 100, read-out: Plant response rating, Oat, Wild) | pest or weed control at 125 g/ha ([2]; 125 g ai/ha, scale 0 to 100 (0 no effect, 100 complete control), read-out: Blackgrass plant response rating) | Corn plant response rating (crop injury, 0 = no effect, 100 = complete kill) at 500 g/ha ([7]; post-emergence, Postemergence, 500 g ai/ha, scale 0 to 100) | pest or weed control at 500 g/ha ([9]; pre-emergence, Preemergence, scale 0 to 100 (0 no effect, 100 complete control), read-out: Surinam Grass plant response rating) | plant injury at 500 g/ha ([10]; post-emergence, Postemergence, scale 0 to 100, read-out: Plant response rating, Wheat) | pest or weed control at 125 g/ha ([14]; pre-emergence, Preemergence, scale 0 to 100 (0 no effect, 100 complete control), read-out: Plant response rating, Cocklebur) | pest or weed control at 500 g/ha ([17]; post-emergence, Postemergence, scale 0 to 100, read-out: Plant response rating, Foxtail, Giant)
10%: pest or weed control at 125 g/ha ([9]; pre-emergence, Preemergence, scale 0 to 100 (0 no effect, 100 complete control), read-out: Plant response rating, Surinam Grass) | pest or weed control at 125 g/ha ([13]; pre-emergence, Preemergence, scale 0 to 100 (0 no effect, 100 complete control), read-out: Plant response rating, Barnyardgrass) | pest or weed control at 125 g/ha ([17]; post-emergence, Postemergence, scale 0 to 100 (0 no effect, 100 complete control), read-out: Foxtail, Giant plant response rating)
30%: pest or weed control at 125 g/ha ([8]; pre-emergence, Preemergence, scale 0 to 100 (0 no effect, 100 complete control), read-out: Plant response rating, Crabgrass) | pest or weed control at 125 g/ha ([14]; post-emergence, Postemergence, scale 0 to 100 (0 no effect, 100 complete control), read-out: Cocklebur plant response rating)
90%: pest or weed control at 500 g/ha ([13]; post-emergence, Postemergence, scale 0 to 100, read-out: Plant response rating, Barnyardgrass) | pest or weed control at 500 g/ha ([14]; pre-emergence, Preemergence, scale 0 to 100 (0 no effect, 100 complete control), read-out: Cocklebur plant response rating) | pest or weed control at 500 g/ha ([15]; post-emergence, Postemergence, scale 0 to 100, read-out: Plant response rating, Velvetleaf) | pest or weed control at 500 g/ha ([15]; pre-emergence, Preemergence, scale 0 to 100 (0 no effect, 100 complete control), read-out: Velvetleaf plant response rating) | pest or weed control at 125 g/ha ([16]; post-emergence, Postemergence, scale 0 to 100 (0 no effect, 100 complete control), read-out: Lambsquarters plant response rating) | pest or weed control at 125 g/ha ([16]; pre-emergence, Preemergence, scale 0 to 100 (0 no effect, 100 complete control), read-out: Plant response rating, Lambsquarters)
70%: pest or weed control at 500 g/ha ([2]; 500 g ai/ha, scale 0 to 100, read-out: Plant response rating, Blackgrass) | pest or weed control at 125 g/ha ([11]; post-emergence, Postemergence, scale 0 to 100 (0 no effect, 100 complete control), read-out: Morningglory plant response rating) | pest or weed control at 125 g/ha ([11]; pre-emergence, Preemergence, scale 0 to 100 (0 no effect, 100 complete control), read-out: Plant response rating, Morningglory) | pest or weed control at 125 g/ha ([12]; post-emergence, Postemergence, scale 0 to 100 (0 no effect, 100 complete control), read-out: Pigweed plant response rating) | pest or weed control at 125 g/ha ([15]; pre-emergence, Preemergence, scale 0 to 100 (0 no effect, 100 complete control), read-out: Plant response rating, Velvetleaf) | pest or weed control at 500 g/ha ([17]; pre-emergence, Preemergence, scale 0 to 100 (0 no effect, 100 complete control), read-out: Foxtail, Giant plant response rating)
80%: pest or weed control at 500 g/ha ([8]; pre-emergence, Preemergence, scale 0 to 100 (0 no effect, 100 complete control), read-out: Crabgrass plant response rating) | pest or weed control at 500 g/ha ([9]; post-emergence, Postemergence, scale 0 to 100, read-out: Plant response rating, Surinam Grass) | pest or weed control at 125 g/ha ([12]; pre-emergence, Preemergence, scale 0 to 100 (0 no effect, 100 complete control), read-out: Plant response rating, Pigweed) | pest or weed control at 500 g/ha ([13]; pre-emergence, Preemergence, scale 0 to 100 (0 no effect, 100 complete control), read-out: Barnyardgrass plant response rating)
20%: pest or weed control at 125 g/ha ([8]; post-emergence, Postemergence, scale 0 to 100 (0 no effect, 100 complete control), read-out: Crabgrass plant response rating) | pest or weed control at 125 g/ha ([9]; post-emergence, Postemergence, scale 0 to 100 (0 no effect, 100 complete control), read-out: Surinam Grass plant response rating) | plant injury at 125 g/ha ([10]; post-emergence, Postemergence, scale 0 to 100 (0 no effect, 100 complete control), read-out: Wheat plant response rating) | plant injury at 125 g/ha [10, 18]
40%: pest or weed control at 125 g/ha ([13]; post-emergence, Postemergence, scale 0 to 100 (0 no effect, 100 complete control), read-out: Barnyardgrass plant response rating)
50%: plant injury at 500 g/ha ([7]; pre-emergence, Preemergence, 500 g ai/ha, scale 0 to 100 (0 no effect, 100 complete control), read-out: Corn plant response rating) | pest or weed control at 500 g/ha ([8]; post-emergence, Postemergence, scale 0 to 100, read-out: Plant response rating, Crabgrass) | plant injury at 500 g/ha [10, 18] | pest or weed control at 125 g/ha ([15]; post-emergence, Postemergence, scale 0 to 100 (0 no effect, 100 complete control), read-out: Velvetleaf plant response rating)
100%: pest or weed control at 500 g/ha ([11]; post-emergence, Postemergence, scale 0 to 100, read-out: Plant response rating, Morningglory) | pest or weed control at 500 g/ha ([11]; pre-emergence, Preemergence, scale 0 to 100 (0 no effect, 100 complete control), read-out: Morningglory plant response rating) | pest or weed control at 500 g/ha ([12]; post-emergence, Postemergence, scale 0 to 100, read-out: Plant response rating, Pigweed) | pest or weed control at 500 g/ha ([12]; pre-emergence, Preemergence, scale 0 to 100 (0 no effect, 100 complete control), read-out: Pigweed plant response rating) | pest or weed control at 500 g/ha ([14]; post-emergence, Postemergence, scale 0 to 100, read-out: Plant response rating, Cocklebur) | pest or weed control at 500 g/ha ([16]; post-emergence, Postemergence, scale 0 to 100, read-out: Plant response rating, Lambsquarters) | pest or weed control at 500 g/ha ([16]; pre-emergence, Preemergence, scale 0 to 100 (0 no effect, 100 complete control), read-out: Lambsquarters plant response rating)
0%: pest or weed control at 1000 g/ha [3] | pest or weed control at 1000 g/ha [4] | pest or weed control at 1000 g/ha [5] | plant injury at 1000 g/ha [6] | plant injury at 125 g/ha ([7]; post-emergence, Postemergence, 125 g ai/ha, scale 0 to 100 (0 no effect, 100 complete control), read-out: Corn plant response rating) | Corn plant response rating (crop injury, 0 = no effect, 100 = complete kill) at 125 g/ha ([7]; pre-emergence, Preemergence, 125 g ai/ha, scale 0 to 100 (0 no effect, 100 complete control)) | pest or weed control at 125 g/ha ([17]; pre-emergence, Preemergence, scale 0 to 100 (0 no effect, 100 complete control), read-out: Plant response rating, Foxtail, Giant)
